Broadly, the Km is the concentration of substrate that gives half-maximal velocity. By Vmax is commonly meant the top rate of the reaction or transport when substrate is in excess.

We go through three compounds from ChEMBL document CHEMBL3526141, “Characterization of human liver enzymes involved in the biotransformation of boceprevir, a hepatitis C virus protease inhibitor” (Drug Metab Dispos, 2011).

Data set [1] concerns Liver cytosol. The experiment in a line: Drug metabolism in human liver cytosol treated with 20 uM [14C]SCH 534128 assessed as 100 uM diazepam-mediated inhibition of metabolite formation LC-MS/MS/FSA method. The format is ADME, tissue-based. Details: interact cpd dose 100 uM.
The target of data set [2] is T1, Aldo-keto reductase family 1 member C3 (Homo sapiens, UniProt P42330).
T1 sequence (P42330 whole entry): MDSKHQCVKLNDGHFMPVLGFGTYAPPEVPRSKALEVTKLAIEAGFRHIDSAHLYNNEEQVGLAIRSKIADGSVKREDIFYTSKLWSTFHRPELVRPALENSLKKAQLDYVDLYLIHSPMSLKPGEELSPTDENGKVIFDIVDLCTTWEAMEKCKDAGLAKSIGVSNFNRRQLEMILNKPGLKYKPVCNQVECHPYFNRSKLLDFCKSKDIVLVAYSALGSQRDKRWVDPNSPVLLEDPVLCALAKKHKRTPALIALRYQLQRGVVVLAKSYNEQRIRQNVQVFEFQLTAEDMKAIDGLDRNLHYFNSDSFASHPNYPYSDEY
The experiment in a line: Drug metabolism in human recombinant […] HEK293 cells treated with 20 uM boceprevir assessed as 100 uM flufenamic acid-mediated inhibition of AKR1C3-mediated metabolite formation after 120 mins in presence of NADPH by LC-MS/MS/FSA method. The conditions noted are these: hek293, 2 h. Details: interact cpd dose 100 uM. The format is ADME, cell-based.

The target of data set [3] is T1, Aldo-keto reductase family 1 member C3. Description: Drug metabolism in human recombinant […] HEK293 cells treated with 20 uM boceprevir assessed as 1 mM ibuprofen-mediated inhibition of AKR1C3-mediated metabolite formation after 120 mins in presence of NADPH by LC-MS/MS/FSA method. The format is ADME, cell-based. Further details: interact cpd dose 1 mM. To be noted: hek293, 2 h.

Data set [4] relates to Liver cytosol. The experiment in a line: Drug metabolism in human liver cytosol treated with 20 uM [14C]boceprevir assessed as quercetin-mediated inhibition of metabolite formation by LC-MS/MS/FSA method. The format is ADME, tissue-based.
Data set [5] concerns Liver cytosol. The experiment in a line: Drug metabolism in human liver cytosol at 20 uM assessed as (1R,2S,5S)-N-((2S,3R)-4-amino-1-cyclobutyl-3-hydroxy-4-oxobutan-2-yl)-3-((S)-2-(3-tert-butylureido)-3,3-dimethylbutanoyl)-6,6-dimethyl-3-azabicyclo[3.1.0]hexane-2-carboxamide formation in presence of BNPP by LC-MS/MS/FSA method. In kind it is ADME.
Data set [6] relates to Liver cytosol. The experiment in a line: (§1) Drug metabolism in human liver cytosol at 20 uM assessed as (1R,2S,5S)-N-((2S,3R)-4-amino-1-cyclobutyl-3-hydroxy-4-oxobutan-2-yl)-3-((S)-2-(3-tert-butylureido)-3,3-dimethylbutanoyl)-6,6-dimethyl-3-azabicyclo[3.1.0]hexane-2-carboxamide formation at 20 uM after 60 mins in presence of AKR inhibitor diazepam by LC-MS/MS/FSA method. The conditions noted are these: 1 h. In kind it is ADME.

Data set [7] has as its system Liver cytosol. Description: Drug metabolism in human liver cytosol at 20 uM assessed as (1R,2S,5S)-N-((2S,3R)-4-amino-1-cyclobutyl-3-hydroxy-4-oxobutan-2-yl)-3-((S)-2-(3-tert-butylureido)-3,3-dimethylbutanoyl)-6,6-dimethyl-3-azabicyclo[3.1.0]hexane-2-carboxamide formation at 20 uM after 60 mins in presence of pre-incubation with ritonavir by LC-MS/MS/FSA method. In kind it is ADME. To be noted: 1 h.

The target in data set [8] is T1, Aldo-keto reductase family 1 member C3. The experiment in a line: Activity of human recombinant AKR1C3 expressed in HEK293 cells assessed as (1R,2S,5S)-N-((2S,3R)-4-amino-1-cyclobutyl-3-hydroxy-4-oxobutan-2-yl)-3-((S)-2-(3-tert-butylureido)-3,3-dimethylbutanoyl)-6,6-dimethyl-3-azabicyclo[3.1.0]hexane-2-carboxamide formation after 120 mins in presence of NADPH by LC-MS/MS/FSA method. The format is ADME, cell-based. The conditions noted are these: hek293, 2 h.

Data set [9] shares this target. Description: Activity of human recombinant AKR1C3 expressed in HEK293 cells assessed as (1R,2S,5S)-N-((2S,3R)-4-amino-1-cyclobutyl-3-hydroxy-4-oxobutan-2-yl)-3-((S)-2-(3-tert-butylureido)-3,3-dimethylbutanoyl)-6,6-dimethyl-3-azabicyclo[3.1.0]hexane-2-carboxamide formation per mg protein after 120 mins in presence of NADPH by LC-MS/MS/FSA method. The format is ADME, cell-based. The conditions noted are these: hek293, 2 h.

For data set [10], the system named is Liver cytosol. Description: Drug metabolism in human liver cytosol at 20 uM assessed as (1R,2S,5S)-N-((2S,3R)-4-amino-1-cyclobutyl-3-hydroxy-4-oxobutan-2-yl)-3-((S)-2-(3-tert-butylureido)-3,3-dimethylbutanoyl)-6,6-dimethyl-3-azabicyclo[3.1.0]hexane-2-carboxamide formation in presence of quercetin by LC-MS/MS/FSA method. The format is ADME.
In data set [11] the target is T2, Aldo-keto reductase family 1 member C2 (Homo sapiens, UniProt P52895).
T2 sequence (P52895 whole entry): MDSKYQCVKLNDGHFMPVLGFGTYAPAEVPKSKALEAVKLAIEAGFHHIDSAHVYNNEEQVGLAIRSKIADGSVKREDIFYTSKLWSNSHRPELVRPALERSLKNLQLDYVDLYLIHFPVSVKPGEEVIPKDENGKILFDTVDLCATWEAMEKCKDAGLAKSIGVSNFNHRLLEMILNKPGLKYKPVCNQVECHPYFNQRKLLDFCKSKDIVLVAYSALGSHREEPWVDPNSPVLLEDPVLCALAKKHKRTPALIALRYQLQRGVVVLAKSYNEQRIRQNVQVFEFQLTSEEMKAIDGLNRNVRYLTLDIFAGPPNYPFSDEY
The experiment in a line: Activity of human recombinant AKR1C2 expressed in HEK293 cells assessed as (1R,2S,5S)-N-((2R,3R)-4-amino-1-cyclobutyl-3-hydroxy-4-oxobutan-2-yl)-3-((S)-2-(3-tert-butylureido)-3,3-dimethylbutanoyl)-6,6-dimethyl-3-azabicyclo[3.1.0]hexane-2-carboxamide formation at 20 uM after 120 mins in presence of NADPH by LC-MS/MS/FSA method. The format is ADME, cell-based. The conditions noted are these: hek293, 2 h.

Data set [12] concerns Liver cytosol. The data set is described as §1. In kind it is ADME. The conditions noted are these: 1 h. This is another data set of the same source.
In data set [13] the test system is Liver cytosol. Description: Drug metabolism in human liver cytosol at 20 uM assessed as (1R,2S,5S)-N-((2S,3R)-4-amino-1-cyclobutyl-3-hydroxy-4-oxobutan-2-yl)-3-((S)-2-(3-tert-butylureido)-3,3-dimethylbutanoyl)-6,6-dimethyl-3-azabicyclo[3.1.0]hexane-2-carboxamide formation in presence of flufenamic acid by LC-MS/MS/FSA method. In kind it is ADME.
Data set [14] deals with Liver cytosol. Description: Drug metabolism in human liver cytosol assessed as (1R,2S,5S)-N-((2R,3R)-4-amino-1-cyclobutyl-3-hydroxy-4-oxobutan-2-yl)-3-((S)-2-(3-tert-butylureido)-3,3-dimethylbutanoyl)-6,6-dimethyl-3-azabicyclo[3.1.0]hexane-2-carboxamide formation after 60 mins by LC-MS/MS/FSA method. In kind it is ADME, tissue-based. The conditions noted are these: 1 h.

On to `CC(C)(C)NC(=O)N[C@H](C(=O)N1C[C@H]2[C@@H]([C@H]1C(=O)N[C@@H](CC1CCC1)[C@@H](O)C(N)=O)C2(C)C)C(C)(C)C`, for which the “inhibition (INH)” value was 72.9% with Liver cytosol [1], 93% in data set [2], 55% in [3] and less than 30% with Liver cytosol [4].

Regarding `CC(C)(C)NC(=O)N[C@H](C(=O)N1C[C@H]2[C@@H]([C@H]1C(=O)NC(CC1CCC1)C(=O)C(N)=O)C2(C)C)C(C)(C)C` (some centres undefined) [BOCEPREVIR], the Compound recovery result in the data set on Liver cytosol [5] is given as “metabolite_not_detected”; with Liver cytosol [6] it was “metabolite_not_detected”; with Liver cytosol [7] it was “metabolite_detected”; in the data set on Liver cytosol [10] it was “metabolite_not_detected”; in data set [11], “metabolite_detected”; in the data set on Liver cytosol [12], “metabolite_not_detected”. In addition, in the data set with Liver cytosol [13], the Compound recovery result is listed as “metabolite_not_detected”. The Km in data set [8] stood at 43.5 µM. The Vmax in data set [9] amounted to 639 pmol/min.

Take `CC(C)(C)NC(=O)N[C@H](C(=O)N1C[C@H]2[C@@H]([C@H]1C(=O)N[C@H](CC1CCC1)C(=O)C(N)=O)C2(C)C)C(C)(C)C`: in the data set on Liver cytosol [14], the Km amounted to 27.4 µM.
